Assay results taken from US11109593B2, “Isoxazolin-5-one derivative and herbicide containing same as active ingredient” (HOKKO CHEMICAL INDUSTRY CO., LTD., priority 2017, dated 2021).

How the values were obtained:
Format in all cases: in vivo
[1] = test system: broad leaf weeds (Lindernia pyxidaria and Monochoria vaginalis); test: Test Example 1: herbicidal effect test by treatment of rice paddy soil (immediately after seeding); conditions: 120 g/10a active ingredient, dry weight vs untreated area, 14 days after treatment
How it was run: (§1)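 Application occurs immediately after seeding, with diluted emulsion added to paddy water (about 3 cm deep) over puddled, fertilized soil at 120 g active ingredient per 10 ares. Herbicidal rate is calculated from mean dry weight against untreated controls 14 days later.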

[2] = test system: Scirpus juncoides; test: as above; conditions: 120 g/10a active ingredient, dry weight vs untreated area, 14 days after treatment
How it was run: as §1

[3] = test system: Echinochloa crus-galli; test: as above; conditions: 120 g/10a active ingredient, dry weight vs untreated area, 14 days after treatment
How it was run: as §1

[4] = test system: Chenopodium album; test: Test Example 4: herbicidal effect test by treatment of leave and stem in dry field farming (seven days after seeding); conditions: 120 g/10a active ingredient; emulsion sprayed seven days after seeding; evaluated 14 days after treatment
How it was run: (§2)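 Weeds were seeded at 20 seeds per species into the top 1 cm of alluvial upland soil in pots, then sprayed 7 days after seeding with water-diluted emulsifiable concentrate at 100 L/10 a, giving 120 g active ingredient/10 a. Duplicate pots; herbicidal rate (%) was 14 days post-treatment, from dry weight versus untreated.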

[5] = test system: Amaranthus viridis; test: as above; conditions: 120 g/10a active ingredient; emulsion sprayed seven days after seeding; evaluated 14 days after treatment
How it was run: as §2

[6] = test system: southern crabgrass; test: as above; conditions: 120 g/10a active ingredient; emulsion sprayed seven days after seeding; evaluated 14 days after treatment
How it was run: as §2

[7] = test system: Echinochloa crus-galli; test: as above; conditions: 120 g/10a active ingredient; emulsion sprayed seven days after seeding; evaluated 14 days after treatment
How it was run: as §2

[8] = test system: broad leaf weeds (Lindernia pyxidaria and Monochoria vaginalis); test: Test Example 2: herbicidal effect test by treatment during growing period in paddy rice cultivation (seven days after seeding); conditions: 120 g/10a active ingredient, assessed 14 days after treatment, dry weight vs untreated area
How it was run: (§3)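 Paddy soil in Wagner pots with compound fertilizer, puddled; 30 seeds per species sown at 0–1 cm, flooded ~3 cm, greenhouse. Seven days after seeding, water-diluted emulsions were dropped into the water at 120 g active ingredient per 10 ares. Duplicate pots; herbicidal rate from dry weight versus untreated, 14 days after treatment.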

[9] = test system: Scirpus juncoides; test: as above; conditions: 120 g/10a active ingredient, assessed 14 days after treatment, dry weight vs untreated area
How it was run: as §3

[10] = test system: Echinochloa crus-galli; test: as above; conditions: 120 g/10a active ingredient, assessed 14 days after treatment, dry weight vs untreated area
How it was run: as §3

[11] = test system: Chenopodium album; test: Test Example 3: herbicidal effect test by treatment of dry field farming soil (one day after seeding); conditions: 120 g/10a active ingredient, evaluated 14 days after treatment
How it was run: (§4)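 Pre-emergence soil treatment: alluvial dry-field soil, 20 seeds per species mixed into top 1 cm, emulsion diluted in water sprayed one day after seeding at 100 L per 10 ares (120 g active ingredient per 10 ares). Duplicate pots; herbicidal rate (%) from dry weight vs untreated at 14 days.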

[12] = test system: Amaranthus viridis; test: as above; conditions: 120 g/10a active ingredient, evaluated 14 days after treatment
How it was run: as §4

[13] = test system: southern crabgrass; test: as above; conditions: 120 g/10a active ingredient, evaluated 14 days after treatment
How it was run: as §4

[14] = test system: Echinochloa crus-galli; test: as above; conditions: 120 g/10a active ingredient, evaluated 14 days after treatment
How it was run: as §4

| Compound | Herbicidal rate (%) Lindernia pyxidaria [1] [%] | Herbicidal rate (%) Monochoria vaginalis [1] [%] | Herbicidal rate (%) Scirpus juncoides [2] [%] | Herbicidal rate (%) Echinochloa crus-galli [3] [%] | herbicidal effect (herbicidal rate), Chenopodium album [4] [%] | herbicidal effect (herbicidal rate), Amaranthus viridis [5] [%] | herbicidal effect (herbicidal rate), southern crabgrass [6] [%] | herbicidal effect (herbicidal rate), Echinochloa crus-galli [7] [%] | Herbicidal rate (%) Lindernia pyxidaria [8] [%] | Herbicidal rate (%) Monochoria vaginalis [8] [%] | Herbicidal rate (%) Scirpus juncoides [9] [%] | Herbicidal rate (%) Echinochloa crus-galli [10] [%] | herbicidal rate, Chenopodium album [11] [%] | herbicidal rate, Amaranthus viridis [12] [%] | herbicidal rate, southern crabgrass [13] [%] | herbicidal rate, Echinochloa crus-galli [14] [%] |
| --- | --- | --- | --- | --- | --- | --- | --- | --- | --- | --- | --- | --- | --- | --- | --- | --- |
| CCCC(C)n1oc(=O)c(Cc2ccccc2NS(=O)(=O)C(F)(F)F)c1C (stereo not shown) [Compound 1-109] | 100 | 100 | 100 | 100 | 50 | 70 | 80 | 90 | 70 | 90 | 90 | 90 | 60 | 60 | 90 | 90 |
| CCCC(CC)n1oc(=O)c(Cc2ccccc2NS(=O)(=O)C(F)(F)F)c1C (stereo not shown) [Compound 1-110] | 100 | 100 | 100 | 100 | 50 | 60 | 90 | 90 | 80 | 100 | 80 | 100 | 80 | 80 | 90 | 90 |
| CCC(C)Cn1oc(=O)c(Cc2ccccc2NS(=O)(=O)C(F)(F)F)c1C (stereo not shown) [Compound 1-112] | 90 | 90 | 90 | 100 | 0 | 40 | 50 | 90 | 80 | 80 | 90 | 90 | 80 | 60 | 90 | 90 |
| CCC(CC)Cn1oc(=O)c(Cc2ccccc2NS(=O)(=O)C(F)(F)F)c1C [Compound 1-113] | 100 | 100 | 100 | 100 | 40 | 60 | 60 | 80 | 60 | 80 | 90 | 90 | 100 | 80 | 90 | 90 |
| Cc1c(Cc2ccccc2NS(=O)(=O)C(F)(F)F)c(=O)on1CCC(C)C [Compound 1-115] | 90 | 90 | 90 | 100 | 40 | 40 | 40 | 60 | 80 | 80 | 90 | 90 | 100 | 100 | 90 | 90 |
| Cc1c(Cc2ccccc2NS(=O)(=O)C(F)(F)F)c(=O)on1CCC(C)(C)C [Compound 1-116] | 90 | 80 | 90 | 90 | 50 | 60 | 40 | 80 | 60 | 80 | 90 | 90 | 50 | 80 | 90 | 90 |
| CCCCC(C)n1oc(=O)c(Cc2ccccc2NS(=O)(=O)C(F)(F)F)c1C (stereo not shown) [Compound 1-120] | 100 | 100 | 100 | 100 | 50 | 60 | 80 | 90 | 80 | 80 | 90 | 90 | 50 | 50 | 90 | 90 |
